Tests used:
RAW264.7 macrophages [1] = assay: Cell accumulation experiment, transmitted light microscopy of cellular staining pattern; type: cell-based; details: for Inferred uptake: inferred from staining pattern after 72 hour incubation; for Observed cellular staining pattern (Notes): live cells, 72 hour incubation, 5 × 10^−6 M (2.5 × 10^−6 M for I); for Cellular staining relative to clofazimine: live macrophages, 72 h; for Staining in fixed cells: methanol-fixed cells incubated 72 h with compound (control)
Procedure: Cell Accumulation Experiments and Transmitted Light Microscopic Examination: […] After a 24 h incubation (37 °C, 5% CO2), cells were incubated with solution of clofazmine or its chemical derivatives (300 μL of 5 × 10^−6 m concentration; measured cell viability ranging from 85% to 97% for all compounds tested at this concentration; Figure 1) in DMEM (no phenol red; plus 1 × 10^−3 M sodium pyruvate and 5% FBS). For Compound “I,” 2.5 × 10^−6 M of compound solution in media was used for the RAW 264.7 macrophages incubation because of lower cell viability at higher concentrations (IC50 = (3.95 ± 0.11) × 10^−6 M). A solution of clofazmine or other chemical derivatives was made by a diluting stock solutions (2.5 × 10^−3 M in DMSO; 10 × 10^−3 M stock in DMSO were stored at −80 °C for further use) into DMEM with 5% FBS. […] The extracellular concentration of each compound in each well was maintained by daily replacement of the compound‐containing media. After 72 h of incubation with clofazmine or its derivatives, compound‐containing media were removed and cells were washed twice with media. Live cells in the chambered glasses were examined under inverted transmitted light microscopy (Nikon Eclipse Ti microscope) with a 40× objective and color camera. As a control experiment, fixed cells were also microscopically examined after incubation with the compounds. Cells were seeded on the chambered cover glasses at the density of 1.5 × 10^4 cells cm^−2 (RAW264.7 macrophages) or 2.5 × 10^4 cells cm^−2 (MDCK epithelial cells). After an overnight incubation (37 °C, 5% CO2), media was removed from the wells and cold methanol (−20 °C) was added to each well. After 30 s, remaining methanol was removed by washing with media with 5% FBS. Fixed cells were incubated (37 °C, 5% CO2) with clofazmine or derivatives (300 μL of 5 × 10^−6 M; 2.5 × 10^−6 M for I) in media with 5% FBS. After 72 h, fixed RAW264.7 or MDCK cells were washed with media and examined using the same transmitted microscopy conditions as the live cells.

RAW264.7 macrophages [2] = assay: Linear diattenuation anisotropy microscopy (LC-PolScope) of intracellular inclusions; type: cell-based; details: 72 h, compared with clofazimine
Procedure: (§1) The optical design was built on a Nikon Eclipse Ti microscope equipped with the liquid crystal universal compensator consisting of a linear polarizer and a pair of liquid crystal devices. The LC compensator was part of the transillumination path and was used to illuminate the specimen with monochromatic, linearly polarized light of varying polarization orientation. There was no polarization analyzer present in the imaging path. Quantitative intensity images were recorded by a charge‐coupled device camera and a desktop computer calculated the average transmittance, the differential transmittance and the polarization orientation leading to maximum transmittance for each optically resolved picture element (pixel). Acquisition and processing steps were controlled using OpenPolScope plugins for the open source imaging programs ImageJ and Micro‐Manager (MMStudio version 1.4.15). With the combination of hardware and software, polarized light images were acquired at high sensitivity and high spatial resolution for measuring linear diattenuation.
(§2) Linear Diattenuation Microscopy Data Acquisition and Analysis: After RAW264.7 macrophages or MDCK epithelial cells were incubated with the compound in the chambered cover glasses for 72 h, at the same time of performing transmitted microscopic examination, cell specimens were examined under linear diattenuation microscopy using the Nikon Eclipse Ti microscope with 40×/0.75 NA objective and monochromatic light of two different center wavelengths, 546 and 623 nm (passband 30 nm). In the OpenPolScope software, Pol‐Acquisition and Pol‐Analyzer plugins (version 2.0) were used to capture, process, and analyze the attenuation images. Before imaging the samples, the setup was calibrated using a specially prepared slide featuring four small pieces of linear polarization filters. The transmission axes of the filters were oriented in steps of 45° providing a means to calibrate the LC universal compensator settings. After the calibration, a sample slide was inserted and first a sequence of polarized light images of a clear, fully transmitting sample area was recorded, followed by an image sequence featuring the cells under investigation. The images of the clear area were used to determine instrument factors which were needed for computing the average and the polarization dependent loss in transmittance in cellular components visible in the second image.10
(§3) Linear diattenuation is a material property that can occur in materials such as crystals, in which the light absorbing molecules are arranged with a preferred orientation. The molecular alignment creates principal axes in the material denoting polarization directions for which light is maximally and minimally transmitted. Diattenuation is the difference between maximal (T max) and minimal (T min) transmittance, divided by their sum (Equation (1)): (1) Diattenuation=Tmax‐Tmin/Tmax+Tmin
(§4) To simultaneously measure the attenuation of many crystals with arbitrary orientations, we developed algorithms based on four specimen images, each recorded using light of a different polarization orientation: 0°, 45°, 90°, and 135°.10 The four raw images were used to calculate the average and differential transmittance and the orientation of maximum transmittance in every resolved image pixel. To isolate and analyze quantitative data of the objects (crystals), the anisotropy or maximum transmittance axis orientation image file opened in ImageJ was inverted (Ctrl + Shift + I) and thresholded using ImageJ's default automatic method (“Binary” → “Convert to Mask”). By using the ImageJ's algorithm, “Analyze Particles,” data of anisotropy or maximum transmittance axis orientation of objects in images could be obtained automatically. Diattenuation ratios were calculated by dividing anisotropy at 623 nm by that at 546 nm.

MDCK epithelial cells = assay: as above; type: cell-based, Canine; details: 72 h, compared with clofazimine
Procedure: as §1, §2, §3, §4

RAW264.7 macrophages [3] = assay: Cell associated mass measurements (bioaccumulation, pmole/cell); type: cell-based; details: 72 h incubation, normalized by number of cells
Procedure: Cell Associated Mass Measurements: […] After an overnight incubation (37 °C, 5% CO2), cells were incubated with 100 μL of the media (DMEM with 5% FBS) containing 5 × 10^−6 M clofazmine or its chemical derivatives (2.5 × 10^−6 M of Compound “I”). Media containing each compound was replaced every day during the 72 h incubation. After the incubation, media was removed and cells were washed with Hank's balanced salt solution (HBSS) buffer (No. 14025; Invitrogen) twice. RAW264.7 macrophage cells in buffer were scraped and MDCK epithelial cells were exposed to Trypsin‐EDTA solution for detachment from the plates for cell number counting and quantification of cell‐associated masses. After centrifugation (650 × g), supernatant was removed and cell pellets were resuspended in 0.1 M citric acid/0.1 M trisodium citrate buffer (pH 5) for cell counting as previously reported.7 Equal numbers of cells in 100 μL in buffer were transferred to 96 well plates and 100 μL of detergent (ATCC, 30‐1010K) was added into wells for cell lysis. Chemical absorbance from each well was measured by the UV–vis microplate reader (Synergy 2, BioTek Instruments, Winooski, VT) at 490 nm wavelength and cell‐associated mass of each compound was calculated by a standard curve generated separately using the same media and presented as pmole/cell by normalizing the amount of chemical in each cell population sample by the number of cells in each sample.

Inferred uptake (RAW264.7 macrophages [1])	Accumulation in macrophages (RAW264.7 macrophages [3])	Structure (SMILES)	Observed cellular staining pattern (Notes) (RAW264.7 macrophages [1])	Cellular staining relative to clofazimine (RAW264.7 macrophages [1])	Staining in fixed cells (RAW264.7 macrophages [1])	Diattenuation anisotropy of intracellular inclusions (RAW264.7 macrophages [2])	Diattenuation anisotropy of intracellular inclusions (MDCK epithelial cells)
Good	greatest accumulation	C[C@@H](CN=c1cc2n(-c3ccc(Cl)cc3)c3ccccc3nc-2cc1Nc1ccc(Cl)cc1)c1ccccc1 [Compound U]	Fibrous/crystal-like brown inclusions with orange perinuclear vesicles are present in live cells	prominent cellular staining	absent in fixed cells	even higher anisotropy	only in macrophages
Excellent	greatest accumulation	Clc1ccc(Nc2cc3nc4ccccc4n(-c4ccc(Cl)cc4)c-3cc2=NCCc2ccccc2)cc1 [Compound P]	Large fibrous/crystal-like brown inclusions present in live cells	more prominent staining patterns	absent in fixed cells	higher diattenuation anisotropy	higher diattenuation anisotropy
